Results reported in patent US20230017045A1, “PYRIDINE AND PYRIMIDINE CARBOXYLATE HERBICIDES AND METHODS OF USE THEREOF” (Dow AgroSciences LLC, priority 2017, published 2023).
Read-outs that look alike come from different tables or passages of the source.

System: test plant species
Experiment: Post-emergent herbicidal activity test (greenhouse, foliar spray, visual growth reduction)
Type: in vivo
Conditions: post-emergence, 336 h, 140 g ai/ha
Method in brief: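 Scoring used a 0 to 100 percent visual scale of growth reduction against solvent-treated controls, read 14 d after spraying. Applications went onto plants at first or second true leaf stage, 187 L/ha, with crop oil concentrate and X-77 surfactant in the carrier. Post-treatment watering was by subirrigation to avoid wash-off.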

[1] = ECHCG: barnyardgrass (Echinochloa crus-galli), 14 days after application, read-out: Visual Growth Reduction (%) 14 Days After Application, ECHCG
[2] = IPOHE: ivy-leaf morning glory (Ipomoea hederacea), 14 days after application, read-out: Visual Growth Reduction (%) 14 Days After Application, IPOHE
[3] = KCHSC: kochia (Bassia scoparia), 14 days after application, read-out: Visual Growth Reduction (%) 14 Days After Application, KCHSC
[4] = ORYSA: rice (Oryza sativa), 14 days after application, read-out: Visual Growth Reduction (%) 14 Days After Application, ORYSA
[5] = SETFA: giant foxtail (Setaria faberi), 14 days after application, read-out: Visual Growth Reduction (%) 14 Days After Application, SETFA
[6] = SORVU: grain sorghum (Sorghum vulgare), 14 days after application, read-out: Visual Growth Reduction (%) 14 Days After Application, SORVU
[7] = STEME: common chickweed (Stellaria media), 14 days after application, read-out: Visual Growth Reduction (%) 14 Days After Application, STEME
[8] = TRZAS: wheat, spring (Triticum aestivum), 14 days after application, read-out: Visual Growth Reduction (%) 14 Days After Application, TRZAS
[9] = blackgrass (Alopecurus myosuroides), 14 Days After Application, read-out: Visual Growth Reduction (%) ALOMY
[10] = canada thistle (Cirsium arvense), 14 Days After Application, read-out: Visual Growth Reduction (%) CIRAR
[11] = crabgrass (Digitaria sanguinalis), 14 Days After Application, read-out: Visual Growth Reduction (%) DIGSA
[12] = lambsquarters (Chenopodium album), 14 Days After Application, read-out: Visual Growth Reduction (%) CHEAL
[13] = redroot pigweed (Amaranthus retroflexus), 14 Days After Application, read-out: Visual Growth Reduction (%) AMARE
[14] = wild oat (Avena fatua), 14 Days After Application, read-out: Visual Growth Reduction (%) AVEFA
[15] = yellow nutsedge (Cyperus esculentus), 14 Days After Application, read-out: Visual Growth Reduction (%) CYPES
[16] = ALOMY: blackgrass (Alopecurus myosuroides), 14 days after application, read-out: Visual Growth Reduction (%) 14 Days After Application, ALOMY
[17] = AMARE: redroot pigweed (Amaranthus retroflexus), 14 days after application, read-out: Visual Growth Reduction (%) 14 Days After Application, AMARE
[18] = AVEFA: wild oat (Avena fatua), 14 days after application, read-out: Visual Growth Reduction (%) 14 Days After Application, AVEFA
[19] = CHEAL: lambsquarters (Chenopodium album), 14 days after application, read-out: Visual Growth Reduction (%) 14 Days After Application, CHEAL
[20] = CIRAR: canada thistle (Cirsium arvense), 14 days after application, read-out: Visual Growth Reduction (%) 14 Days After Application, CIRAR
[21] = CYPES: yellow nutsedge (Cyperus esculentus), 14 days after application, read-out: Visual Growth Reduction (%) 14 Days After Application, CYPES
[22] = DIGSA: crabgrass (Digitaria sanguinalis), 14 days after application, read-out: Visual Growth Reduction (%) 14 Days After Application, DIGSA

| SMILES | pest or weed control at 140 g/ha [1] [%] | pest or weed control at 140 g/ha [2] [%] | pest or weed control at 140 g/ha [3] [%] | pest or weed control at 140 g/ha [4] [%] | pest or weed control at 140 g/ha [5] [%] | pest or weed control at 140 g/ha [6] [%] | pest or weed control at 140 g/ha [7] [%] | pest or weed control at 140 g/ha [8] [%] | pest or weed control at 140 g/ha [9] [%] | pest or weed control at 140 g/ha [10] [%] | pest or weed control at 140 g/ha [11] [%] | pest or weed control at 140 g/ha [12] [%] | pest or weed control at 140 g/ha [13] [%] | pest or weed control at 140 g/ha [14] [%] | pest or weed control at 140 g/ha [15] [%] | pest or weed control at 140 g/ha [16] [%] | pest or weed control at 140 g/ha [17] [%] | pest or weed control at 140 g/ha [18] [%] | pest or weed control at 140 g/ha [19] [%] | pest or weed control at 140 g/ha [20] [%] | further results |
| --- | --- | --- | --- | --- | --- | --- | --- | --- | --- | --- | --- | --- | --- | --- | --- | --- | --- | --- | --- | --- | --- |
| COC(=O)c1nc(-c2ccc(F)cc2)c(F)cc1Cl [F227, Methyl 3-chloro-5-fluoro-6-(4-fluorophenyl) picolinate] | 0 to 29 | 60 to 74 | 0 to 29 | 0 to 29 | 0 to 29 | 60 to 74 | 0 to 29 | 0 to 29 | 0 to 29 | 30 to 44 | 30 to 44 | 75 to 84 | 0 to 29 | 0 to 29 | 0 to 29 | – | – | – | – | – | – |
| COC(=O)c1nc(-c2ccc(C(F)(F)F)cc2Cl)ccc1C#N [F10, Methyl 6-(2-chloro-4-(trifluoromethyl)phenyl)-3-cyanopicolinate] | – | – | – | – | – | – | – | – | – | – | – | – | – | – | – | 0 to 29 | 30 to 44 | 0 to 29 | 45 to 59 | 30 to 44 | pest or weed control at 140 g/ha [21]: 45 to 59%; pest or weed control at 140 g/ha [22]: 45 to 59%; pest or weed control at 140 g/ha (barnyardgrass (Echinochloa crus-galli), 14 Days After Application, read-out: Visual Growth Reduction (%) ECHCG): 0 to 29%; pest or weed control at 140 g/ha (common chickweed (Stellaria media), 14 Days After Application, read-out: Visual Growth Reduction (%) STEME): 0 to 29%; pest or weed control at 140 g/ha (giant foxtail (Setaria faberi), 14 Days After Application, read-out: Visual Growth Reduction (%) SETFA): 0 to 29%; pest or weed control at 140 g/ha (ivy-leaf morning glory (Ipomoea hederacea), 14 Days After Application, read-out: Visual Growth Reduction (%) IPOHE): 60 to 74%; pest or weed control at 140 g/ha (johnsongrass (Sorghum vulgare), 14 Days After Application, read-out: Visual Growth Reduction (%) SORVU): 30 to 44%; pest or weed control at 140 g/ha (kochia (Bassia scoparia), 14 Days After Application, read-out: Visual Growth Reduction (%) KCHSC): 0 to 29%; pest or weed control at 140 g/ha (rice (Oryza sativa), 14 Days After Application, read-out: Visual Growth Reduction (%) ORYSA): 0 to 29%; pest or weed control at 140 g/ha (wheat, spring (Triticum aestivum), 14 Days After Application, read-out: Visual Growth Reduction (%) TRZAS): 0 to 29% |
| COC(=O)c1nc(-c2ccc(Cl)c(C(F)F)c2F)ccc1Cl [F273, Methyl 3-chloro-6-(4-chloro-3-(difluoromethyl)-2-fluorophenyl) picolinate] | 0 to 29 | 75 to 84 | 0 to 29 | 0 to 29 | 0 to 29 | 75 to 84 | 0 to 29 | 0 to 29 | 0 to 29 | 30 to 44 | 60 to 74 | 75 to 84 | 0 to 29 | 0 to 29 | 0 to 29 | – | – | – | – | – | – |
| COC(=O)c1nc(-c2ccc(C(F)(F)C(N)=O)cc2Cl)ccc1Cl [F176, Methyl 6-(4-(2-amino-1,1-difluoro-2-oxoethyl)-2-chlorophenyl)-3-chloropicolinate] | 0 to 29 | 0 to 29 | 0 to 29 | 0 to 29 | 0 to 29 | 0 to 29 | 0 to 29 | 0 to 29 | – | – | – | – | – | – | – | 0 to 29 | 0 to 29 | 0 to 29 | 0 to 29 | 0 to 29 | pest or weed control at 140 g/ha [21]: 0 to 29%; pest or weed control at 140 g/ha [22]: 0 to 29% |
| COC(=O)c1nc(-c2c(N)cc(C(F)(F)F)cc2Cl)ccc1Cl [F213, Methyl 6-(2-amino-6-chloro-4-(trifluoromethyl)phenyl)-3-chloropicolinate] | 0 to 29 | 95 to 100 | 60 to 74 | 0 to 29 | 30 to 44 | 60 to 74 | 0 to 29 | 0 to 29 | 0 to 29 | 0 to 29 | 30 to 44 | 85 to 94 | 45 to 59 | 0 to 29 | 0 to 29 | – | – | – | – | – | – |
| O=C(O)c1nc(-c2ccnc(Cl)c2Cl)ccc1Cl [F133, 2′,3′,5-Trichloro-[2,4′-bipyridine]-6-carboxylic acid] | 0 to 29 | 45 to 59 | 0 to 29 | 0 to 29 | 0 to 29 | 60 to 74 | 0 to 29 | 0 to 29 | – | – | – | – | – | – | – | 0 to 29 | 0 to 29 | 0 to 29 | 75 to 84 | 0 to 29 | pest or weed control at 140 g/ha [21]: 0 to 29%; pest or weed control at 140 g/ha [22]: 45 to 59% |
| Cc1c(C(F)(F)F)ccc(-c2ccc(Cl)c(C(=O)O)n2)c1F [F293, 3-Chloro-6-(2-fluoro-3-methyl-4-(trifluoromethyl)phenyl)picolinic acid] | 0 to 29 | 0 to 29 | 0 to 29 | 0 to 29 | 0 to 29 | 0 to 29 | 0 to 29 | 0 to 29 | 0 to 29 | 30 to 44 | 0 to 29 | 45 to 59 | 0 to 29 | 0 to 29 | 0 to 29 | – | – | – | – | – | – |
| COC(=O)c1nc(-c2ccc(N)cc2Cl)c(F)cc1Cl [F358, Methyl 6-(4-amino-2-chlorophenyl)-3-chloro-5-fluoropicolinate] | 0 to 29 | 0 to 29 | 0 to 29 | 0 to 29 | 0 to 29 | 0 to 29 | 0 to 29 | 0 to 29 | 0 to 29 | 0 to 29 | 0 to 29 | 0 to 29 | 0 to 29 | 0 to 29 | 0 to 29 | – | – | – | – | – | – |
| COc1cc(C(F)(F)F)cc(Cl)c1-c1ccc(Cl)c(C(=O)O)n1 [F223, 3-Chloro-6-(2-chloro-6-methoxy-4-(trifluoromethyl)phenyl) picolinic acid] | 75 to 84 | 95 to 100 | 95 to 100 | 30 to 44 | 85 to 94 | 85 to 94 | 60 to 74 | 75 to 84 | 0 to 29 | 95 to 100 | 60 to 74 | 95 to 100 | 95 to 100 | 60 to 74 | 45 to 59 | – | – | – | – | – | – |
